We go through 2 compounds from ChEMBL document CHEMBL5338707, “Design, synthesis and bioactivity evaluation of favorable evodiamine derivative scaffold for developing cancer therapy” (Eur J Med Chem, 2022).

SMILES strings stand for the structures. Calls of active or inactive are those of the source. The rule behind the calls is not given here.

Series [1] has as its system SGC-7901. Description: Cell cycle arrest in human SGC-7901 cells assessed as accumulation of cells at G0/G1 phase at 3 nM incubated for 24 hrs by PI staining based flow cytometric analysis (Rvb =84.12%). It counts as functional. In general terms: Flow cytometry measures light scatter and fluorescence of single cells or particles in a stream.
The subject of series [2] is SGC-7901. Nature of the series: Antiproliferative activity against human SGC-7901 cells assessed as inhibition of colony formation at low concentration incubated for 1 to 2 weeks by crystal violet staining based analysis. The settings on record: time 1-2 weeks. Format: functional, cell-based.
Series [3] relates to SGC-7901. Nature of the series: Induction of apoptosis in human SGC-7901 cells assessed as viable cells at 48 nM incubated for 24 hrs by AnnexinV-FITC/PI staining based flow cytometric analysis (reference value: 96.94%). Format: functional. Particulars: read-out: Activity.
For series [4], the system named is MGC-803. Nature of the series: Antimigratory activity against human MGC-803 cells assessed as reduction in number of migrating cells at 48 nM incubated for 24 hrs by transwell migration assay relative to control. Format: functional. On the set-up: scale not given: the % may be the effect or the level left.
The test system of series [5] is MGC-803. Nature of the series: Antiproliferative activity against human MGC-803 cells assessed as inhibition of colony formation at >= 16 nM incubated for 1 to 2 weeks by crystal violet staining based analysis. Format: functional, cell-based. Particulars: time 1-2 weeks.
Series [6] concerns SGC-7901. Nature of the series: Antiproliferative activity against human SGC-7901 cells assessed as inhibition of colony formation at >= 16 nM incubated for 1 to 2 weeks by crystal violet staining based analysis. Format: functional, cell-based. The settings on record: time 1-2 weeks.
A short description of series [7]: AUC (0 to t) in rat at 50 mg/kg, ip measured at 0.25 to 24 hrs by LC-MS analysis. Format: ADME, organism-based. On the set-up: dose 50 mg/kg, time upper 24 hrs, time lower 0.25 hrs, route ip. Particulars: in vivo.
Series [8] concerns MGC-803. Nature of the series: Induction of apoptosis in human MGC-803 cells assessed as late apoptotic cells at 96 nM incubated for 24 hrs by AnnexinV-FITC/PI staining based flow cytometric analysis (reference value: 0.52%). It counts as functional.
In series [9] the test system is MGC-803. Nature of the series: Antitumor activity against human MGC-803 cells xenografted in BALB/C mouse assessed as tumor growth inhibition at 35 mg/kg, ip administered once a day for 17 days relative to control. Format: functional. Particulars: MGC-803, 408 h, time 17 day, read-out: TGI. A general note: In xenograft studies the graft and the host belong to different species.

A short description of series [10]: Acute toxicity in Kunming mouse assessed as effect on heart at 300 mg/kg, ip administered for 14 days by H&E staining based analysis. Format: organism-based. The settings on record: in vivo, 336 h, time 14 day.
Series [11] is described as follows: Acute toxicity in Kunming mouse assessed as effect on kidney at 300 mg/kg, ip administered for 14 days by H&E staining based analysis. Format: organism-based. Particulars: in vivo, 336 h, time 14 day.
Series [12] in a line: Acute toxicity in Kunming mouse assessed as effect on spleen at 300 mg/kg, ip administered for 14 days by H&E staining based analysis. It counts as organism-based. The settings on record: in vivo, 336 h, time 14 day.
Series [13] in a line: Toxicity in BALB/C mouse xenografted with human MGC-803 cells assessed as decrease in body weight at 35 mg/kg, ip administered once daily for 17 days. It counts as organism-based. The settings on record: in vivo, 408 h, time 17 day.
Series [14] is described as follows: Acute toxicity in Kunming mouse assessed as effect on lung at 300 mg/kg, ip administered for 14 days by H&E staining based analysis. Format: organism-based. The settings on record: in vivo, 336 h, time 14 day.
Series [15] is described as follows: Acute toxicity in Kunming mouse assessed as animal death at 300 mg/kg, ip administered for 14 days. The settings on record: in vivo, 336 h, time 14 day. Format: organism-based.
Series [16] is described as follows: Acute toxicity in Kunming mouse assessed as effect on liver at 300 mg/kg, ip administered for 14 days by H&E staining based analysis. The settings on record: in vivo, 336 h, time 14 day. Format: organism-based.

A word on the AUC(0-t): it is the area under the concentration-time curve up to a stated or last time point.

On to `O=C1c2cc(F)ccc2N(c2cccc(F)c2)C2c3[nH]c4ccc(O)cc4c3CCN12` (configuration not stated), for which the values for the Activity in series [1], in series [4] and in series [8] were 70.14%, 36.03% and 20.56%, respectively. Further, the outcome in series [2], in series [5] and in series [6] was Active. In addition, in series [3], the viability at 0.048 µM was 89.8%. Moreover, the AUC(0-t) in series [7] amounted to 12.3 µg·h/mL.
Regarding `CC(=O)Oc1ccc2[nH]c3c(c2c1)CCN1C(=O)c2cc(F)ccc2N(c2cccc(F)c2)C31` (configuration not stated), in [9], the inhibition in vivo at 35 mg/kg came out at 36.4%. Besides, the Activity in series [1] is 62.12%; in [10], “Non-Toxic”; in series [11] it was “Non-Toxic”; in [12], “Non-Toxic”; in series [4], 38.93%; in series [13], “Non-Toxic”. Further, the Activity result in series [14] is “Non-Toxic”; in series [15], “Non-Toxic”; in series [16], “Non-Toxic”; in series [8], 21.94%. The result in series [2] was Active. Also, the viability at 0.048 µM in series [3] was 80.6%. In series [7], this compound came in with an AUC(0-t) of 17.9 µg·h/mL.
